The test system of experiment [1] is SVR (murine angiosarcoma) cells. Nature of the experiment: Proliferation study, SVR cells (Coulter Counter). In kind it is cell-based. The settings on record: 10 μM, 24 h, cell count vs DMSO. An excerpt: (§1) Different analogs of solenopsin were synthesized (FIG. 1) in order to explore their structure-activity relationships. The aliphatic side chains of S14 and S13 are 4 and 8 carbons longer compared to solenopsin, respectively. S11 has an 8-carbon longer side chain, as well as an extra methyl group in the 4-position of the piperidine ring. S15 has an 11-carbon side chain similar to solenopsin, but the first carbon in the side chain is hydroxylated. Also, S15 lacks the methyl group in the 2-position of the piperidine ring. All the analogs together with (−)- and (+)-solenosin A, and the isomeric mixture of the two cis-isomers of solenopsin (S12) were tested, at 10 μM, on two different human melanoma cell lines (A375 and A2058) and one murine angiosarcoma cell line (SVR) (FIG. 2). The A375 and A2058 melanoma cell lines express mutant Braf and the SVR murine angiosarcoma cell line expresses mutant Hras. One important difference between the two human melanoma cell lines is the A2058 is PTEN null, whereas A375 is not.
(§2) A375 (human melanoma), A2058 (human melanoma), or SVR (murine angiosarcoma) cells were plated at a concentration of 50,000 cells/well. The cells were treated with 10 μM of (−)-solenopsin A, (+)-solenopsin A, or analogs (S11-S15) for 24 hours, at which point cells were counted with a Coulter Counter.

The next experiment has as its system p-pMAPK 44/42. Nature of the experiment: Western blot p-pMAPK 44/42 in SVR cells. The experiment is classed as cell-based, murine. The settings on record: 10 μM (ceramide C2 20 μM), 24 h. The protocol: (§3) A375, SVR, and A2058 cells were treated for 24 h with ceramide C2 (20 μM), (+)-solenopsin A ((+) Sol. A, 10 μM), (−)-solenopsin A ((−) Sol. A, 10 μM), or solenopsin analogs S11-S15 (10 μM). The expression of p-AKT S473, p-pMAPK 44/42, and B-actin was determined by western blotting.
(§4) A375, SVR, and A2058 cells treated with solenopsin A and analogs were evaluated by Western-blotting with pAkt S473, p-pMAPK 44/42, and β-actin (FIG. 5). Although the proliferation results were more or less similar in all three cell lines, the protein expressions varied. In A375's an up-regulation of pAkt S473 and p-pMAPK 44/42 could be seen for (+)- and (−)-solenopsin A, as well as for analogs S12-S15 (FIG. 5). […] The results for cell line A2058 is similar to A375, i.e. there is an up-regulation of p-Akt S473 and p-pMAPK 44/42 in the treatment groups compared to the control. […] Both human melanoma cell lines (A375 and A2058) are reactive oxygen driven tumors, whereas the murine angiosarcoma cell line (SVR) is not. […]
(§5) Cells were grown in T-25 flasks until 80% confluent followed by treatment for 24 h with 10 μM DMSO solutions of (+)-solenopsin A, (−)-solenopsin A, or analogs (S11-S15). Sample aliquots normalized for protein quantities were size fractionated by 10% SDS-PAGE, and the proteins were transferred to a PVDF membrane. […]
(A western blot detects proteins with antibodies after separation by electrophoresis.)

The test system of the next experiment is UM-SCC1A cells. The experiment can be described thus: Oxygen consumption rate (Seahorse) in UM-SCC1A cells. In kind it is cell-based, human. To be noted: 10 μM, 24 h. The protocol: UM-SCC1A cells were plated 15,000/well and treated for 24 h with 10 μM of (+)-solenopsin A ((+) Sol. A), (−)-solenopsin A ((−) Sol. A), and solenopsin analogs S11-S15. Oxygen consumption rate (OCR) was measured as pmoles O2/minute using a Seahorse Biosciences instrument. Data shown are an average of three experiments±s.d.
At least not in Braf mutated cell lines, such as A375 and A2058. One possibility is that solenopsin, like ceramide, may also localize to mitochondria, and cause mitochondrial induced cell death. Cellular oxygen consumption rate can be indicative of mitochondrial function. Therefore, to investigate if solenopsin A and analogs do alter mitochondrial function, UM-SCC1A (human head and neck SCC) cells were then treated with 10 μM compound or the equivalent amount of DMSO and incubated for 24 hours. A SeaHorse Bioscience instrument was used to measure the oxygen consumption rate (OCR). […] Mitophagy can be one reason for decreased OCR, but further assays are needed to confirm the cause for the observed differences.
UM-SCC1A cells were plated 15,000 per well in 200 μl DMEM supplemented with 10% FBS and 1% penicillin-streptomycin in each well of a 96-well Seahorse plate and incubated overnight at 37° C. with 5% CO2. Cells were then treated with 10 μM compound or the equivalent amount of DMSO and incubated for 24 hours. OCR was measured as pmoles O2/minute using the Seahorse Biociences instrument per manufacturer's instructions. Protein amounts in each well were then quantified using the Thermo Scientific Pierce Protein Assay, per manufacturer's instructions.

In experiment [2] the test system is A375 (human melanoma) cells. Nature of the experiment: Proliferation study, A375 cells (Coulter Counter). The experiment is classed as cell-based. To be noted: 10 μM, 24 h, cell count vs DMSO. The protocol: 50,000 cells/well were plated and treated for 24 h with each compound. The first DMSO bar in each chart serves as control for (+)-solenopsin A, (−)-solenopsin A, and ceramide C2. The second DMSO bar is the control for S11-S15.
as §1, §2

The subject of another experiment is p-Akt S473. Nature of the experiment: Western blot p-Akt S473 in SVR cells. The experiment is classed as cell-based, murine. The settings on record: 10 μM (ceramide C2 20 μM), 24 h. Here is the method:
as §3, §4, §5

Experiment [3] concerns A2058 (human melanoma) cells. Nature of the experiment: Proliferation study, A2058 cells (Coulter Counter). In kind it is cell-based. To be noted: 10 μM, 24 h, cell count vs DMSO.
From the text: as §1, §2

The target in experiment [4] is neuronal nitric oxide synthase (Homo sapiens, UniProt P29475). The settings on record: Yi et al., Int J Toxicol 2003; cited from earlier work.
neuronal nitric oxide synthase, sequence (P29475 whole entry): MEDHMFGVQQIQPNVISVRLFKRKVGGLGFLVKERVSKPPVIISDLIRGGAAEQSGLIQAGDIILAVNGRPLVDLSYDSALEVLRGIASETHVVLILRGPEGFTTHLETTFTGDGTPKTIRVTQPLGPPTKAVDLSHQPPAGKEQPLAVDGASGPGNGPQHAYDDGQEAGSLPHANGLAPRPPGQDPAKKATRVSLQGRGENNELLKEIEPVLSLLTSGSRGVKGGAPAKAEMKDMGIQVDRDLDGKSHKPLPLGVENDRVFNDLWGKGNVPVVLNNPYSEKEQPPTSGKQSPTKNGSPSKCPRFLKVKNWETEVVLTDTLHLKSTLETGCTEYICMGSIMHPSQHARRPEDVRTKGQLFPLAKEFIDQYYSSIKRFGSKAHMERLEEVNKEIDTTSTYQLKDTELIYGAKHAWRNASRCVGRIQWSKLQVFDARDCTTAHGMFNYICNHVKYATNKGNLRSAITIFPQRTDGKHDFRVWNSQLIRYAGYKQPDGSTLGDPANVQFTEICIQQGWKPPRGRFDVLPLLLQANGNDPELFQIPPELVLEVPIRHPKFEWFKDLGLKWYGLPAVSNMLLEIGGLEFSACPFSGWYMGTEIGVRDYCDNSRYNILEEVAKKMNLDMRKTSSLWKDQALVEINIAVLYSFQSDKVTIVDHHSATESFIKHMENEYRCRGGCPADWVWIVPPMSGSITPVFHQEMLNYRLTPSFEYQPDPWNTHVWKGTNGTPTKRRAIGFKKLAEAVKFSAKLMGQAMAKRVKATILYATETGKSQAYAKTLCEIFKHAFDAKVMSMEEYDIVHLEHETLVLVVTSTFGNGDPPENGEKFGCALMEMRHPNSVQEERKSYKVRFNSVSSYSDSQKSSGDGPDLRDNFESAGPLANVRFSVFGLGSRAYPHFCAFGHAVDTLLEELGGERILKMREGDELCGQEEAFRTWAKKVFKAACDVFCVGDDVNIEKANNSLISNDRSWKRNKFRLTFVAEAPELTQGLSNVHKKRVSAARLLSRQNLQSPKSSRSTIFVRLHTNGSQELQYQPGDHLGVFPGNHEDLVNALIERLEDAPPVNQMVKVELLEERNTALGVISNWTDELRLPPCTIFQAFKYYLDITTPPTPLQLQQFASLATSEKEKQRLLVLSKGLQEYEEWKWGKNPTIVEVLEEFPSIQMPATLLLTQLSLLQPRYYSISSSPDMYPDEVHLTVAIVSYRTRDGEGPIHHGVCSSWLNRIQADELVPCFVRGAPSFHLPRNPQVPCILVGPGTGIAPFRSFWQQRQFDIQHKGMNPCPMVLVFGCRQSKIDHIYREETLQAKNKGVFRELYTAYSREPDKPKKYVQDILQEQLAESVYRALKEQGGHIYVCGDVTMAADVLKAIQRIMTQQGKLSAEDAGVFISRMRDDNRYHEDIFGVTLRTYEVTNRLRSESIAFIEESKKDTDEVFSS
The subject of a further experiment is Pseudomonas aeruginosa. To be noted: Park et al. 2008; cited from earlier work.
In a further experiment the test system is phosphoinositol-3 kinase. The settings on record: p53 deficient renal cell carcinoma cell line 786-O; Arbiser et al. 2007; cited from earlier work.
Another experiment concerns angiogenesis. To be noted: Arbiser et al., Blood 2007; cited from earlier work.
The next experiment has as its system A375 cells. Nature of the experiment: Superoxide (ROS) by DHE fluorescence, A375 cells. In kind it is cell-based, human. The settings on record: 10 μM, 24 h. The protocol:
Cells were treated for 24 h with 10 μM of (+)-solenopsin A ((+) Sol. A), (−)-solenopsin A ((−) Sol. A), and solenopsin analogs S11-S15. Cells were trypsined and incubated for 10 min in 10 μM dihydroethedium (DHE), followed by analysis with a FACScan flow cytometer. Data shown are an average of three experiments±s.d.
A375 or SVR cells were plated in 6 cm dishes. After cells had adhered to the plates, they were treated for 24 h with 10 μM DMSO solutions of (+)-solenopsin A, (−)-solenopsin A, or analogs (S11-S15) at which time the media was aspirated. Cells were washed with 2 mL PBS then treated with 0.05% trypsin/0.53 mM EDTA (Fisher) for 3 min at RT. Cells were collected and then pelleted at 600 g for 2 min. The supernatant was aspirated and the cells were suspended in 10 uM dihydroethidium (DHE) (Life Technologies) and incubated for 10 min in the dark at RT while shaking Following this incubation, cells were kept until counting on a Becton Dickinson FACScan flow cytometer. 10,000 cells were counted and analyzed by FlowJo 7.6.4. Mean values of DHE fluorescence intensity were compared.

Molecules are shown by their SMILES. “Also recorded” adds a separate entry of the source.

As to `CCCCCCCCCCCCCCCC1CCCC(C)N1` (stereo not shown) [Compound S14, 2-Methyl-6-pentadecylpiperidine], the antiproliferative effect entry in [1] was “equally as effective as solenopsin A; also recorded: most potent analog”; in experiment [2], “equally as effective as solenopsin A; also recorded: most potent analog”; in experiment [3], “equally as effective as solenopsin A; also recorded: approximately equally as potent as (−)- and (+)-solenopsin A”. Also, in the experiment with p-pMAPK 44/42, the “expression of p-pMAPK 44/42” value is on record as “down-regulated”. Also, the “oxygen consumption rate (OCR) compared to DMSO control” value in the experiment with UM-SCC1A cells is listed as “drastically reduced OCR”. In addition, the “expression of p-Akt S473” value in the experiment on p-Akt S473 is recorded as “down-regulated”.

In the case of `CCCCCCCCCCCC1CCCC(C)N1` (stereo not shown) [isosolenopsin A, 2-methyl-6-nundecylpiperidine], the “inhibition of neuronal nitric oxide synthase” value in experiment [4] is “potent and selective inhibitor”.

As to `CCCCCCCCCCCC1CCCC(C)N1` (stereo not shown) [Compound S12, 2-Methyl-6-undecylpiperidine], the antiproliferative effect entry in experiment [1] is “anti-proliferative properties, although not as potent as solenopsin A itself; also recorded: clearly weaker than for the (−)- and (+)-solenopsin A”; in [2] it was “anti-proliferative properties, although not as potent as solenopsin A itself; also recorded: clearly weaker than for the (−)- and (+)-solenopsin A”; in [3], “anti-proliferative properties, although not as potent as solenopsin A itself; also recorded: clearly weaker than for the (−)- and (+)-solenopsin A”. Further, the “oxygen consumption rate (OCR) compared to DMSO control” value with UM-SCC1A cells was “drastically reduced OCR”.

`CCCCCCCCCCCC1CCCC(C)N1` (stereo not shown) [Solenopsin, 2-methyl-6-nundecylpiperidine]: the “quorum sensing in Pseudomonas aeruginosa” value in the experiment on Pseudomonas aeruginosa is “blocks quorum sensing”. The phosphoinositol-3 kinase result in the experiment on phosphoinositol-3 kinase is listed as “downregulated phosphoinositol-3 kinase”. The anti-angiogenic activity entry in the experiment with angiogenesis was “anti-angiogenic activity”.

For the compound `CCCCCCCCCCC(O)C1CCCCN1` (stereo not shown) [Compound S15, 1-(Piperidin-2-yl)undecan-1-ol], the antiproliferative effect result in [1] is reported as “equally as effective as solenopsin A; also recorded: potent antiproliferative effect”; in experiment [2], “equally as effective as solenopsin A; also recorded: potent antiproliferative effect”; in experiment [3], “equally as effective as solenopsin A; also recorded: potent antiproliferative effect; also recorded: most potent analog”. For the same compound, the “expression of p-pMAPK 44/42” value in the experiment on p-pMAPK 44/42 was “down-regulated”. The “oxygen consumption rate (OCR) compared to DMSO control” value in the experiment with UM-SCC1A cells is “drastically reduced OCR”. Besides, the “expression of p-Akt S473” value in the experiment with p-Akt S473 was “down-regulated”.

As to `CCCCCCCCCCCCCCCCCCCC1CC(C)CC(C)N1` (stereo not shown) [Compound S11, 2,4-Dimethyl-6-nonadecylpiperidine], the “effect on superoxide levels (DHE fluorescence)” value in the experiment with A375 cells is “no effect on superoxide levels”. For the same compound, the antiproliferative effect result in experiment [1], in experiment [2] and in experiment [3] was “no significant antiproliferative effect” each time. Also, in the experiment on UM-SCC1A cells, the “oxygen consumption rate (OCR) compared to DMSO control” value is reported as “little change compared to the control”.

(Values after patent US9592226B2, “Solenopsin and derivatives, therapeutic compositions; and methods related thereto” (priority 2013, dated 2017).)
